Test results taken from article PMC5146860, “Succinate production positively correlates with the affinity of the global transcription factor Cra for its effector FBP in Escherichia coli” (Biotechnology for Biofuels, 2016).

How the values were obtained:
Assay in all cases: isothermal titration calorimetry
[1] = biological target: T1, Cra (catabolite repressor/activator; FruR) (Escherichia coli, UniProt P0ACP1); details: 25 °C; 50 mM FBP injected into 15 μM protein (Fig. 5 legend prints 15 mM); effector-binding site
T1 construct: 2IKS is effector-free regulatory domain used for docking

[2] = biological target: T2, Cra (catabolite repressor/activator; FruR) (Escherichia coli, UniProt P0ACP1, D101R/D148R/G274R); details: 25 °C; 50 mM FBP injected into 15 μM protein (Fig. 5 legend prints 15 mM); effector-binding site; mutant of strain Tang1683
T2 construct: 2IKS is effector-free regulatory domain used for docking

[3] = biological target: T3, Cra (catabolite repressor/activator; FruR) (Escherichia coli, UniProt P0ACP1, D148R/A248F/G274R); details: 25 °C; 50 mM FBP injected into 15 μM protein (Fig. 5 legend prints 15 mM); effector-binding site; mutant of strain Tang1684
T3 construct: 2IKS is effector-free regulatory domain used for docking

[4] = biological target: T4, Cra (catabolite repressor/activator; FruR) (Escherichia coli, UniProt P0ACP1, N73Y/D148R/G274R); details: 25 °C; 50 mM FBP injected into 15 μM protein (Fig. 5 legend prints 15 mM); effector-binding site; mutant of strain Tang1688
T4 construct: 2IKS is effector-free regulatory domain used for docking

Kd [1]: 1360 ± 6.2 nM
Kd [2]: 154 ± 4.3 nM
Kd [3]: 728.3 ± 3.8 nM
Kd [4]: 809.1 ± 4.6 nM
SMILES: O=P(O)(O)OC[C@H]1OC(O)(COP(=O)(O)O)[C@@H](O)[C@@H]1O (stereo partly shown) [fructose-1,6-bisphosphate]
